Assay results reported in BigSolDB 2.1.

C=C(C)[C@@H]1CC[C@]2(CO)CC[C@]3(C)[C@H](CC[C@@H]4[C@@]5(C)CC[C@H](O)C(C)(C)[C@@H]5CC[C@]43C)[C@@H]12
solubility (mole fraction)
Settings	278.2 K	283.2 K	288.2 K	298.2 K	308.2 K
in acetone	0.000556	–	0.000866	0.00158	0.00227
in chloroform	0.0026	–	0.00338	0.00437	0.00511
in cyclohexane	–	1.68e-05	2.7e-05	6.34e-05	0.000167
in dichloromethane	0.00079	0.000837	0.000897	0.000991	–
in ethanol	0.000579	–	0.000658	0.000898	0.00113
in ethyl acetate	0.000963	–	0.00155	0.00207	0.00305
in ethyl formate	0.000301	–	0.000316	0.000333	0.000395
in methanol	0.000179	–	0.000248	0.000328	0.000397
in methyl acetate	0.000598	–	0.000705	0.000797	0.000917
in methyl formate	0.000187	0.000212	0.000257	0.000316	–
in n-butanol	0.00181	–	0.00213	0.00238	0.00271
in n-hexanol	0.000744	–	0.000846	0.00102	0.00127
in n-pentanol	0.00095	–	0.0012	0.00143	0.00171
in n-propanol	0.00113	–	0.00127	0.00146	0.0016
